The results in this text go back to article PMC4661090 (FEBS letters, 2015).

What is called Kd is the concentration at which binding is half-saturated. Read a high Kd as lower affinity.

Test [1] concerns the target Tsr (thiostrepton resistance methyltransferase) (Streptomyces azureus, UniProt P18644). Kind of test: isothermal titration calorimetry, single-set-of-sites fit. It counts as binding. In general terms: In ITC the heat of successive injections is recorded.
Test [2] addresses Tsr (thiostrepton resistance methyltransferase) (Streptomyces azureus, UniProt P18644, N129A). Nature of the test: biochemical. The test is classed as binding.
In test [3] the target is Tsr (thiostrepton resistance methyltransferase) (Streptomyces azureus, UniProt P18644, R165A). Nature of the test: biochemical. It counts as binding.
In test [4] the target is Tsr (thiostrepton resistance methyltransferase) (Streptomyces azureus, UniProt P18644, R135A). Kind of test: biochemical. It counts as binding.
The target of test [5] is Tsr (thiostrepton resistance methyltransferase) (Streptomyces azureus, UniProt P18644, R135K). Nature of the test: biochemical.
In test [6] the target is Tsr (thiostrepton resistance methyltransferase) (Streptomyces azureus, UniProt P18644, R165K). Kind of test: biochemical.
Test [7] deals with Tsr (thiostrepton resistance methyltransferase) (Streptomyces azureus, UniProt P18644, N129D). Kind of test: biochemical.

Take `Nc1ncnc2c1ncn2[C@@H]1O[C@H](CSCC[C@H](N)C(=O)O)[C@@H](O)[C@H]1O` [SAH, S-adenosyl-L-homocysteine]: the Kd in test [1] came to 24.4 µM; in test [2], 16.4 µM; in test [3], 20.5 µM; in test [4], 11 µM.
Turning to `C[S+](CC[C@H](N)C(=O)O)C[C@H]1O[C@@H](n2cnc3c(N)ncnc32)[C@H](O)[C@@H]1O` (stereo partly drawn) [SAM, S-adenosyl-L-methionine], the Kd in test [1] was 107 µM; in test [5] it was 142 µM; in test [2] it was 493 µM; in test [6] it was 97.1 µM; in test [7] it was 411 µM; in test [3], 189 µM. The affinity in test [4], expressed as Kd, was 614 µM.
